Measurements from US20240226026A1, “BRANCHED TAIL LIPID COMPOUNDS AND COMPOSITIONS FOR INTRACELLULAR DELIVERY OF THERAPEUTIC AGENTS” (ModernaTX, Inc., priority 2021, published 2024).

Legend:
[1] = Apparent pKa of lipid nanoparticles; type: physicochemical; settings: for Apparent pKa 95% CI: Table 2b, 95% confidence interval; for Apparent pKa: Table 2a, nanoparticles comprising the lipid
[2] = Lipid nanoparticle surface hydrophobicity by Generalized Polarization by Laurdan (N-GP); type: physicochemical; settings: for LNP surface hydrophobicity (N-GP*): Table 2b, nanoparticles comprising the lipid; for Lipid nanoparticle surface hydrophobicity (N-GP*): Table 2a, Laurdan, higher N-GP indicates a less polar surface
Text: Surface hydrophobicity of nanoparticles of the disclosure can be measured by Generalized Polarization by Laurdan (GPL). In this method, Laurdan, a fluorescent aminonaphthalene ketone lipid, is post-inserted into the nanoparticle surface and the fluorescence spectrum of Laurdan is collected to determine the normalized Generalized Polarization (N-GP). In some embodiments, nanoparticles formulated with lipids of the disclosure have a surface hydrophobicity expressed as N-GP of between about 0.5 and about 1.5. For example, in some embodiments, nanoparticles formulated with lipids of the disclosure have a surface hydrophobicity expressed as N-GP of about 0.5, about 0.6, about 0.7, about 0.8, about 0.9, about 1.0, about 1.1, about 1.2, about 1.3, about 1.4, or about 1.5. In some embodiments, nanoparticles formulated with lipids of the disclosure have a surface hydrophobicity expressed as N-GP of about 1.0 or about 1.1.

[3] = Encapsulation efficiency (% EE) of lipid nanoparticles; type: physicochemical; settings: nanoparticles comprising the lipid
Protocol: For nanoparticle compositions including an RNA, a QUANT-IT™ RIBOGREEN® RNA assay (Invitrogen Corporation Carlsbad, CA) can be used to evaluate the encapsulation of an RNA by the nanoparticle composition. The samples are diluted to a concentration of approximately 5 μg/mL in a TE buffer solution (10 mM Tris-HCl, 1 mM EDTA, pH 7.5). 50 μL of the diluted samples are transferred to a polystyrene 96 well plate and either 50 μL of TE buffer or 50 μL of a 2% Triton X-100 solution is added to the wells. The plate is incubated at a temperature of 37° C. for 15 minutes. The RIBOGREEN® reagent is diluted 1:100 in TE buffer, and 100 μL of this solution is added to each well. The fluorescence intensity can be measured using a fluorescence plate reader (Wallac Victor 1420 Multilablel Counter; Perkin Elmer, Waltham, MA) at an excitation wavelength of, for example, about 480 nm and an emission wavelength of, for example, about 520 nm. The fluorescence values of the reagent blank are subtracted from that of each of the samples and the percentage of free RNA is determined by dividing the fluorescence intensity of the intact sample (without addition of Triton X-100) by the fluorescence value of the disrupted sample (caused by the addition of Triton X-100).
The efficiency of encapsulation of a therapeutic and/or prophylactic describes the amount of therapeutic and/or prophylactic that is encapsulated or otherwise associated with a lipid nanoparticle (e.g., an empty LNP or a loaded LNP) after preparation, relative to the initial amount provided. The encapsulation efficiency is desired to be high (e.g., close to 100%). The encapsulation efficiency may be measured, for example, by comparing the amount of therapeutic and/or prophylactic in a solution containing a loaded LNP before and after breaking up the loaded LNP with one or more organic solvents or detergents. Fluorescence may be used to measure the amount of free therapeutic and/or prophylactic (e.g., RNA) in a solution. For the loaded LNPs formulated with lipids of the disclosure, the encapsulation efficiency of a therapeutic and/or prophylactic is at least 50%, for example 50%, 55%, 60%, 65%, 70%, 75%, 80%, 85%, 90%, 91%, 92%, 93%, 94%, 95%, 96%, 97%, 98%, 99%, or 100%. In some embodiments, the encapsulation efficiency is at least 80%. In some embodiments, the encapsulation efficiency is at least 90%. In some embodiments, the encapsulation efficiency of the therapeutic and/or prophylactic agent is between 80% and 100%.
(§1) Lipid nanoparticles (e.g., empty LNPs or loaded LNPs) including DSPC as a phospholipid, cholesterol as a structural lipid, PL-II (e.g., PEG-1) as a PEG lipid, and a lipid according to Formula (I-1), (I), (I-A), (I-A1), (I-A2), (I-A3), or (I-A4) were prepared. In some embodiments, the lipid nanoparticles further included rhodamine-DOPE as a fluorescent lipid. Tables 2a, 2b, and 3 summarize the characteristics of the formulations.

[4] = test system: CD-1 mice; test: Expression of hEPO induced by LNPs (mRNA encoding hEPO) administered to mice; type: in vivo; settings: Table 4a, serum, 6 h after intravenous injection; for Avg. hEPO Concentration (mIU/mL)* ± Avg. SD: ELLA Simple Plex Assay
In short: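 LNPs of DSPC, cholesterol, PEG lipid and test ionizable lipid carrying hEPO mRNA were given intravenously. Serum hEPO was measured 6 h post-injection by ELLA Simple Plex immunoassay calibrated to the 2nd IRP WHO standard.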

[5] = Particle size (diameter) and polydispersity index of lipid nanoparticles; type: physicochemical; settings: nanoparticles comprising the lipid
Protocol: A Zetasizer Nano ZS (Malvern Instruments Ltd, Malvern, Worcestershire, UK) can be used to determine the particle size, the polydispersity index (PDI) and the zeta potential of the nanoparticle compositions in 1×PBS in determining particle size and 15 mM PBS in determining zeta potential.
Lipid nanoparticles (e.g., empty LNPs or loaded LNPs) may be characterized by a variety of methods. For example, microscopy (e.g., transmission electron microscopy or scanning electron microscopy) may be used to examine the morphology and size distribution of a nanoparticle composition. Dynamic light scattering or potentiometry (e.g., potentiometric titrations) may be used to measure zeta potentials. Dynamic light scattering may also be utilized to determine particle sizes. Instruments such as the Zetasizer Nano ZS (Malvern Instruments Ltd, Malvern, Worcestershire, UK) may also be used to measure multiple characteristics of a nanoparticle composition, such as particle size, polydispersity index, and zeta potential.
as §1

[6] = Table 2a, DSPC, cholesterol, PEG lipid

Structure (SMILES)	Apparent pKa 95% CI [1]	LNP surface hydrophobicity (N-GP*) [2]	% EE ([3]; Table 2b) [%]	% EE ([3]; Table 3) [%]	Avg. hEPO Concentration (mIU/mL)* ± Avg. SD [4] [mIU/mL]	Diameter (nm) ([5]; Table 2b)	PDI ([5]; Table 2b)	Diameter (nm) ([5]; Table 3)	PDI ([5]; Table 3)	Apparent pKa [1]	Lipid nanoparticle surface hydrophobicity (N-GP*) [2]	% EE ([3]; Table 2a) [%]	Avg. hEPO Concentration (mIU/mL) ± Avg. SD [4] [mIU/mL]	PDI ([5]; Table 2a)	Diameter (nm) [5, 6] [nm]
CCCCCC(CCCCC)CCOC(=O)CCCCCCCN(CCCCCCCC(=O)OCCC(CCCCC)CCCCC)CCCNc1noc(N)n1 [Compound 23]	6.511 to 6.611	0.95	98.1	96.4	1.17E+06 ± 1.91E+04	87.2	0.181	62.7	0.144						
CCCCCC(CCCCC)CCOC(=O)CCCCCCCN(CCCCCCCC(=O)OCCC(CCCCC)CCCCC)CCCNS(=O)(=O)CCOC [Compound 24]				95.4				93.8	0.17	6.725	1.05	82.9	8.30E+06 ± 1.36E+05	0.112	87.9
CCCCCC(CCCCC)CCOC(=O)CCCCCCCN(CCCCCCCC(=O)OCCC(CCCCC)CCCCC)CCCNC(=O)C1(C)CC1 [Compound 25]	6.865 to 6.928	0.98	26.4	36.1	5.13E+06 ± 9.33E+04	163.9	0.22	89.3	0.154						
CCCCCC(CCCCC)CCOC(=O)CCCCCCCN(CCCCCCCC(=O)OCCC(CCCCC)CCCCC)CCCNS(=O)(=O)CC [Compound 26]				95.0				94.5	0.134	6.645	1.09	86.3	1.42E+07 ± 3.66E+05	0.113	84.8
CCCCCC(CCCCC)CCOC(=O)CCCCCCCN(CCCCCCCC(=O)OCCC(CCCCC)CCCCC)CCCNS(=O)(=O)Cc1ccon1 [Compound 27]	6.614 to 6.687	1.00	78.2	93.5	2.12E+06 ± 7.18E+04	87.8	0.178	66.9	0.148						
CCCCCC(CCCCC)CCOC(=O)CCCCCCCN(CCCCCCCC(=O)OCCC(CCCCC)CCCCC)CCCNc1ncccc1N [Compound 28]	6.545 to 6.670	0.99	99.9	99.5	6.30E+05 ± 1.83E+04	84.3	0.202	90.3	0.161						
